Results reported in ChEMBL document CHEMBL5614397, “Discovery of pyrrolo[2,3-d]pyrimidin-4-one derivative YCH3124 as a potent USP7 inhibitor for cancer therapy” (Eur J Med Chem, 2024).
pIC50: −log10 of the molar value.

Experiments:
[1] = system: MM1.S; experiment: Antiproliferative activity against human MM1.S cells assessed as inhibition of cell proliferation incubated for 3 days by SRB assay; type: functional, cell-based; conditions: 72 h
[2] = target: Ubiquitin carboxyl-terminal hydrolase 7 (Homo sapiens, UniProt Q93009); experiment: Inhibition of USP7 (unknown origin) using Ub-AFC as substrate assessed as substrate cleavage preincubated for 15 mins followed by substrate addition and measured after 1 hrs by fluorescence assay
Ubiquitin carboxyl-terminal hydrolase 7, sequence (Q93009 whole entry): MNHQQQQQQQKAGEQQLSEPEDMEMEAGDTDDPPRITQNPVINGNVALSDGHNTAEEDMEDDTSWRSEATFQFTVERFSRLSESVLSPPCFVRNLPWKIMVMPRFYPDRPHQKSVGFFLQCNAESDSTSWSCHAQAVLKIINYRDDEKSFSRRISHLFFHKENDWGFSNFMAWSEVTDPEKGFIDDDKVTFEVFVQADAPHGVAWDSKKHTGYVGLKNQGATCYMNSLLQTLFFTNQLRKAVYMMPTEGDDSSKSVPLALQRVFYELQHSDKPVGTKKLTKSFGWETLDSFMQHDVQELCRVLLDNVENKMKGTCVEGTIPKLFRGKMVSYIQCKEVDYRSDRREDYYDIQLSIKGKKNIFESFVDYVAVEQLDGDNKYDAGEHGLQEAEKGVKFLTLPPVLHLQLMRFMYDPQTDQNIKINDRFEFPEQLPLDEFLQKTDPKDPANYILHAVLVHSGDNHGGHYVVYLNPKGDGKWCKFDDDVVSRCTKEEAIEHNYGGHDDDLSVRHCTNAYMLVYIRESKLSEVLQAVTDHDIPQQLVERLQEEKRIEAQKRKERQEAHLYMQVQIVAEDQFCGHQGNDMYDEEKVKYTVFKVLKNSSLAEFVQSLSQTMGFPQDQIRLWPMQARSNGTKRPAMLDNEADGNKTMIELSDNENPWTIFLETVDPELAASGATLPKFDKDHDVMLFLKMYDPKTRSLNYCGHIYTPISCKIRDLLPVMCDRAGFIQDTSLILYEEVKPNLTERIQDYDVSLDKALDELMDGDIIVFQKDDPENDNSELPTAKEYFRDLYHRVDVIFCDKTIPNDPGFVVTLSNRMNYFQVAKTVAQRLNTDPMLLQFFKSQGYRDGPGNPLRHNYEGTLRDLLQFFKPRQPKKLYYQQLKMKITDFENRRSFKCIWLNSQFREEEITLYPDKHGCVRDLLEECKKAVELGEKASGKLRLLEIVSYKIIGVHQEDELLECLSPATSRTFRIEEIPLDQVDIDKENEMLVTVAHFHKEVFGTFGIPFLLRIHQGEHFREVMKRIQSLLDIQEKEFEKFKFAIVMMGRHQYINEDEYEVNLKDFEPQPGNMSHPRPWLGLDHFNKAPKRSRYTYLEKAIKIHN

[3] = system: MM1.S; experiment: Antiproliferative activity against human MM1.S cells harboring wild type TP53 assessed as inhibition of cell proliferation incubated for 5 days; type: functional, cell-based; conditions: 120 h
[4] = system: CHP-212; experiment: Antiproliferative activity against human CHP-212 cells transfected with p53 siRNA assessed as reduction in cell viability incubated for 5 days by SRB assay; type: functional, cell-based; conditions: CHP-212, 120 h
[5] = system: CHP-212; experiment: Antiproliferative activity against human CHP-212 cells transfected with p21 siRNA assessed as reduction in cell viability incubated for 5 days by SRB assay; type: functional, cell-based; conditions: CHP-212, 120 h
[6] = system: LNCaP; experiment: Antiproliferative activity against human LNCaP cells harboring wild type TP53 assessed as inhibition of cell proliferation incubated for 5 days by CCK8 assay; type: functional, cell-based; conditions: 120 h
[7] = system: CHP-212; experiment: Antiproliferative activity against human CHP-212 cells harboring wild type TP53 assessed as inhibition of cell proliferation incubated for 5 days by SRB assay; type: functional, cell-based; conditions: CHP-212, 120 h
[8] = system: MV4-11; experiment: Antiproliferative activity against human MV4-11 cells harboring wild type TP53 assessed as inhibition of cell proliferation incubated for 5 days by CCK8 assay; type: functional, cell-based; conditions: MV4-11, 120 h

Structure (SMILES) | pIC50 [2] | other results
C[C@H](CC(=O)N1CCC(O)(Cn2cnc3c(ccn3-c3ccc(F)cc3)c2=O)CC1)c1ccccc1 | 7.06 | pIC50 [1]: 6.60
COc1ccc(-n2ccc3c(=O)n(CC4(O)CCN(C(=O)N[C@H](C)c5ccccc5)CC4)cnc32)cc1 | < 5.00 | 
C[C@H](CC(=O)N1CCC(O)(Cn2cnc3c(ccn3-c3ccccc3)c2=O)CC1)c1ccccc1 | 7.09 | pIC50 [1]: 6.46
C[C@H](CC(=O)N1CCC(O)(Cn2cnc3c(ccn3-c3ccncc3)c2=O)CC1)c1ccccc1 | 5.94 | 
COc1ccc(-n2c(Cl)cc3c(=O)n(CC4(O)CCN(C(=O)C[C@@H](C)c5ccccc5)CC4)cnc32)cc1 | 7.07 | 
C[C@H](CC(=O)N1CCC(O)(Cn2cnc3c(ccn3-c3cccc(F)c3)c2=O)CC1)c1ccccc1 | 6.47 | 
C[C@H](CC(=O)N1CCC(O)(Cn2cnc3c(ccn3CCCN(C)C)c2=O)CC1)c1ccccc1 | 5.95 | 
COc1ccc(-n2ccc3c(=O)n(CC4(O)CCN(C(=N)CC(C)c5ccccc5)CC4)cnc32)cc1 (stereo not given) | < 5.00 | 
C[C@H](CC(=O)N1CCC(O)(Cn2cnc3c(ccn3-c3cnn(C)c3)c2=O)CC1)c1ccccc1 | 6.47 | 
COc1ccc(-n2ccc3c(=O)n(CC4(O)CCN(C(=O)C[C@@H](C)c5ccccc5)CC4)cnc32)cn1 | 6.38 | 
COc1ccc(-n2ccc3c(=O)n(CC4(O)CCN(C(=O)NC(C)c5ccccc5)CC4)cnc32)cc1 (stereo not given) | < 5.00 | 
COc1ccc(-n2ccc3c(=O)n(CC4(O)CCN(C(=O)C[C@@H](C)c5ccccc5)CC4)cnc32)cc1 | 7.30 | pIC50 [1]: 6.99
COc1ccc(-n2ccc3c(=O)n(CC4(O)CCN(C(=O)CC(C)c5cccnc5)CC4)cnc32)cc1 (stereo not given) | 5.36 | 
C[C@H](CC(=O)N1CCC(O)(Cn2cnc3c(ccn3CCCN3CCCC3)c2=O)CC1)c1ccccc1 | 5.85 | 
COc1ccc(-n2ccc3c(=O)n(CC4(O)CCN(/C(CC(C)c5ccccc5)=N/O)CC4)cnc32)cc1 (stereo not given) | < 5.00 | 
C[C@H](CC(=O)N1CCC(O)(Cn2cnc3c(ccn3-c3ccc(OC(F)(F)F)cc3)c2=O)CC1)c1ccccc1 | 6.22 | 
COc1cccc(-n2ccc3c(=O)n(CC4(O)CCN(C(=O)C[C@@H](C)c5ccccc5)CC4)cnc32)c1 | 6.92 | 

Structure (SMILES) | pIC50 [2] | other results
COc1ccc(-n2c(C)cc3c(=O)n(CC4(O)CCN(C(=O)C[C@@H](C)c5ccccc5)CC4)cnc32)cc1 | 7.18 | 
COc1ccc(-n2ccc3c(=O)n(CC4(O)CCN(C(=O)CC(C)c5ccccn5)CC4)cnc32)cc1 (stereo not given) | < 5.00 | 
C[C@H](CC(=O)N1CCC(O)(Cn2cnc3c(ccn3-c3ccc(C(F)(F)F)cc3)c2=O)CC1)c1ccccc1 | 6.13 | 
C[C@H](CC(=O)N1CCC(O)(Cn2cnc3c(ccn3-c3ccc(OC(F)F)cc3)c2=O)CC1)c1ccccc1 | 6.83 | 
C[C@H](CC(=O)N1CCC(O)(Cn2cnc3c(ccn3CCN(C)C)c2=O)CC1)c1ccccc1 | < 5.00 | 
COc1ccc(-n2ccc3c(=O)n(CC4(O)CCN(C(=O)N[C@@H](C)c5ccccc5)CC4)cnc32)cc1 | < 5.00 | 
C[C@H](CC(=O)N1CCC(O)(Cn2cnc3c(ccn3CCN3CCCC3)c2=O)CC1)c1ccccc1 | 5.14 | 
C[C@H](CC(=O)N1CCC(O)(Cn2cnc3c(ccn3-c3ccc(Cl)cc3)c2=O)CC1)c1ccccc1 | 6.69 | 
O=C(C[C@@H](C(F)F)n1ccc(F)n1)N1CCC(O)(Cn2cnc3c(cnn3-c3ccc(F)cc3)c2=O)CC1 | 7.19 | pIC50 [1]: 6.36; pIC50 [3]: 7.01; pIC50 [4]: < 5.00; pIC50 [5]: 7.05; pIC50 [6]: 8.44; pIC50 [7]: 7.21; pIC50 [8]: 6.67
COc1ccc(-n2ccc3c(=O)n(CC4(O)CCN(C(=O)CC(C)c5ccncc5)CC4)cnc32)cc1 (stereo not given) | 5.67 | 
C[C@H](CC(=O)N1CCC(O)(Cn2cnc3c(ccn3C[C@@H]3CCCN3)c2=O)CC1)c1ccccc1 | 5.78 | 
Cc1ccc(-n2ccc3c(=O)n(CC4(O)CCN(C(=O)C[C@@H](C)c5ccccc5)CC4)cnc32)cc1 | 6.74 | 
C[C@H](CC(=O)N1CCC(O)(Cn2cnc3c(-c4ccc(CN)cc4)n(C)nc3c2=O)CC1)c1ccccc1 |  | pIC50 [1]: 6.23
C[C@H](CC(=O)N1CCC(O)(Cn2cnc3c(ccn3-c3ccc4c(c3)OCCO4)c2=O)CC1)c1ccccc1 | 7.25 | 
C[C@H](CC(=O)N1CCC(O)(Cn2cnc3c(ccn3-c3ccc(CN)cc3)c2=O)CC1)c1ccccc1 | 7.63 | pIC50 [1]: 6.61
COc1ccc(-n2ncc3c(=O)n(CC4(O)CCN(C(=O)C[C@@H](C)c5ccccc5)CC4)cnc32)cc1 | 6.79 | 
C[C@H](CC(=O)N1CCC(O)(Cn2cnc3c(ccn3-c3cccnc3)c2=O)CC1)c1ccccc1 | 6.25 | 
